# Data as given in US20260232616A1, “USE OF SIVELESTAT IN ANALGESIA” (SHANGHAI HUILUN PHARMACEUTICAL CO., LTD., priority 2023, published 2026).
# Marks after values point to notes of the source that are not given here.
# System: rat model of postoperative pain
# Assay: Mechanical allodynia testing in a rat model of postoperative pain (hind paw incision)
# Format: in vivo
# Settings: for Mechanical allodynia threshold (PWT (g)): single dose
# [1] = Sivelestat sodium 100 mg/kg IP, 0.5 h
# [2] = Sivelestat sodium 100 mg/kg IP, 1 h
# [3] = Sivelestat sodium 100 mg/kg IP, 2 h
# [4] = Sivelestat sodium 150 mg/kg IP, 0.5 h
# [5] = Sivelestat sodium 150 mg/kg IP, 1 h
# [6] = Sivelestat sodium 150 mg/kg IP, 2 h
# [7] = Sivelestat sodium 150 mg/kg IP, 6 h
# [8] = Sivelestat sodium 200 mg/kg IP, 0.5 h
# [9] = Sivelestat sodium 200 mg/kg IP, 1 h
# [10] = Sivelestat sodium 200 mg/kg IP, 2 h
# [11] = Sivelestat sodium 300 mg/kg IP, 0.5 h
# [12] = Sivelestat sodium 300 mg/kg IP, 1 h
# [13] = Sivelestat sodium 300 mg/kg IP, 2 h
structure (smiles),measurement,setting,value
"CC(C)(C)C(=O)Oc1ccc(S(=O)(=O)Nc2ccccc2C(=O)NCC(=O)O)cc1 [Sivelestat sodium, sivelestat sodium]",% MPE (anti-allodynic effect),[1],25.2* %
same,% MPE (anti-allodynic effect),[2],42.4*** %
same,% MPE (anti-allodynic effect),[3],44.1*** %
same,Mechanical allodynia threshold (PWT (g)),[1],5.5 g
same,Mechanical allodynia threshold (PWT (g)),[2],7.8 g
same,Mechanical allodynia threshold (PWT (g)),[3],8.3 g
same,% MPE (anti-allodynic effect),[4],31.4*** %
same,% MPE (anti-allodynic effect),[5],51.1*** %
same,% MPE (anti-allodynic effect),[6],48.4*** %
same,% MPE (anti-allodynic effect),[7],11.3%
same,Mechanical allodynia threshold (PWT (g)),[4],6.3 g
same,Mechanical allodynia threshold (PWT (g)),[5],8.9 g
same,Mechanical allodynia threshold (PWT (g)),[6],8.8 g
same,Mechanical allodynia threshold (PWT (g)),[7],3.9 g
same,% MPE (anti-allodynic effect),[8],32.6*** %
same,% MPE (anti-allodynic effect),[9],55.1*** %
same,% MPE (anti-allodynic effect),[10],45.3*** %
same,Mechanical allodynia threshold (PWT (g)),[8],6.4 g
same,Mechanical allodynia threshold (PWT (g)),[9],9.4 g
same,Mechanical allodynia threshold (PWT (g)),[10],8.4 g
same,% MPE (anti-allodynic effect),[11],37.5*** %
same,% MPE (anti-allodynic effect),[12],49*** %
same,% MPE (anti-allodynic effect),[13],52.6*** %
same,Mechanical allodynia threshold (PWT (g)),[11],7.0 g
same,Mechanical allodynia threshold (PWT (g)),[12],8.6 g
same,Mechanical allodynia threshold (PWT (g)),[13],9.3 g
same,duration of a high level of analgesic efficacy,"rat postoperative pain model, conclusion from Embodiment 1",more than 6 h
